The values below come from article PMC8286840, “Identifying SARS-CoV-2 antiviral compounds by screening for small molecule inhibitors of Nsp3 papain-like protease” (Biochemical Journal, 2021).

Structures are written as SMILES. Counter-ions that a name gives are not always drawn. Like-named read-outs stand apart in the source and are kept apart here.

Test [1] has as its target T1, SARS-CoV-2 PLpro (nsp3 1564–1878) (Severe acute respiratory syndrome coronavirus 2, UniProt P0DTD1). Nature of the test: biochemical. Particulars: low concentration screen, read-out: % of control remaining. Also on record: FRET-quenched peptide (Pro3) cleavage by PLpro, 10 min pre-incubation, slope over 20 min, normalised to no-compound control.
Test [2] has as its target T1, SARS-CoV-2 PLpro (nsp3 1564–1878). Nature of the test: biochemical. Also on record: FRET-quenched peptide (Pro3) cleavage by PLpro, 10 min pre-incubation, slope over 20 min, normalised to no-compound control. Conditions: high concentration screen, read-out: % of control remaining.

As for `NS(=O)(=O)OC[C@H]1C[C@@H](Nc2ccnc3cc(-c4cccc(SC(F)(F)F)c4)nn23)[C@H](O)[C@@H]1O` [TAK-243], in test [1] (Well no.=7078), the remaining activity at 1.25 µM came to 102%. Also, the remaining activity at 3.75 µM in test [2] (Well no.=7078) was 97%.

Turning to `CCOC(=O)c1c(C)n(C)c2ccc(O)cc12` [Mecarbinate], the remaining activity at 1.25 µM in test [1] (Well no.=4756) is 98.2%. Besides, the remaining activity at 3.75 µM in test [2] (Well no.=4756) worked out at 95.8%.

Consider `O=C1Nc2ccc(Br)cc2/C1=C/c1cc2c([nH]1)CCCC2` [VEGF Receptor 2 Kinase Inhibitor II], for which the remaining activity at 1.25 µM in test [1] (Well no.=2651) came out at 86%. Also, the remaining activity at 3.75 µM in test [2] (Well no.=2651) was found to be 87.8%.

In the case of `CC(C)Cn1c(=O)n(C)c(=O)c2[nH]cnc21` [3-Isobutyl-1-methylxanthine], the remaining activity at 1.25 µM in test [1] (Well no.=773) was determined as 108%. In test [2] (Well no.=773), the remaining activity at 3.75 µM was found to be 106%.

As to `O=C1Nc2ccc(I)cc2/C1=C/c1cc(Br)c(O)c(Br)c1` [GW5074], the remaining activity at 1.25 µM in test [1] (Well no.=525) is 97.2%. Also, in test [2] (Well no.=525), the remaining activity at 3.75 µM was 96.1%.

Turning to `CCCCOCCOc1ccc(-c2ccc3c(c2)/C=C(/C(=O)Nc2ccc([S@@+]([O-])Cc4cncn4CCC)cc2)CCCN3CC(C)C)cc1` [Cenicriviroc Mesylate], the remaining activity at 1.25 µM in test [1] (Well no.=8311) was 99.4%. Also, the remaining activity at 3.75 µM in test [2] (Well no.=8311) stood at 99.6%.

In the case of `CCCCC/C=C\C\C=C/C=C/C=C/[C@@H](SC[C@H](NC(=O)CC[C@H](N)C(=O)O)C(=O)NCC(=O)O)[C@@H](O)CCCC(=O)O` [Leukotriene C4], the remaining activity at 1.25 µM in test [1] (Well no.=4429) is 102%. In test [2] (Well no.=4429), the remaining activity at 3.75 µM is 101%.

Turning to `COc1ccc(S(=O)(=O)Nc2ccccc2CN(C)C/C=C/c2ccc(Cl)cc2)cc1` [KN-92], the remaining activity at 1.25 µM in test [1] (Well no.=2483) stood at 96.3%. Also, the remaining activity at 3.75 µM in test [2] (Well no.=2483) came to 94.2%.

With `COC(=O)[C@H](CC(C)C)NC(=O)c1ccc(NC[C@@H](N)CS)cc1-c1cccc2ccccc12` [GGTI298], the remaining activity at 1.25 µM in test [1] (Well no.=8076) came out at 106%. Besides, the remaining activity at 3.75 µM in test [2] (Well no.=8076) was determined as 101%.

For `CC1(C)CNc2cc(NC(=O)c3cccnc3NCc3ccncc3)ccc21` [Motesanib], the remaining activity at 1.25 µM in test [1] (Well no.=2697) was 104%. In addition, in test [2] (Well no.=2697), the remaining activity at 3.75 µM worked out at 103%.

`COc1nccnc1NS(=O)(=O)c1ccc(N)cc1` [Sulfalene]: the remaining activity at 1.25 µM in test [1] (Well no.=8228) came to 103%. Further, the remaining activity at 3.75 µM in test [2] (Well no.=8228) was found to be 85.7%.

Consider `COc1ccc2cc(CCC(C)=O)ccc2c1` [Nabumetone], for which the remaining activity at 1.25 µM in test [1] (Well no.=2005) worked out at 102%. In addition, in test [2] (Well no.=2005), the remaining activity at 3.75 µM stood at 101%.

Regarding `CCC[C@@H]1C[C@@H](C(=O)N[C@@H]([C@H]2O[C@H](SC)[C@H](OP(=O)(O)O)[C@@H](O)[C@H]2O)[C@H](C)Cl)N(C)C1` [Clindamycin phosphate], the remaining activity at 1.25 µM in test [1] (Well no.=5052) is 105%. Also, the remaining activity at 3.75 µM in test [2] (Well no.=5052) is 104%.

Turning to `N#Cc1ccc(C(c2ccc(C#N)cc2)n2cncn2)cc1` [Letrozole], the remaining activity at 1.25 µM in test [1] (Well no.=1822) amounted to 97.8%. Also, in test [2] (Well no.=1822), the remaining activity at 3.75 µM stood at 98.2%.

Consider `CC(C)(OO)c1ccccc1` [Cumene hydroperoxide], for which the remaining activity at 1.25 µM in test [1] (Well no.=3843) came out at 103%. Further, in test [2] (Well no.=3843), the remaining activity at 3.75 µM is 100%.

As to `NC12CC3CC(CC(C3)C1)C2` [Amantadine.HCl], in test [1] (Well no.=1653), the remaining activity at 1.25 µM worked out at 97.9%. Also, the remaining activity at 3.75 µM in test [2] (Well no.=1653) was 97.4%.

`CC(=O)N1CCN(c2ccc(OC[C@@H]3CO[C@@](Cn4ccnc4)(c4ccc(Cl)cc4Cl)O3)cc2)CC1` (racemic) [Ketoconazole]: the remaining activity at 1.25 µM in test [1] (Well no.=877) was 107%; in test [1] (Well no.=1853), 99.4%. Besides, the remaining activity at 3.75 µM in test [2] (Well no.=877) was 107%; in test [2] (Well no.=1853), 100%.

As for `CCN(CC)CCNC(=O)c1ccc(N)cc1` [Procainamide.HCl], the remaining activity at 1.25 µM in test [1] (Well no.=1645) turned out to be 108%. In test [2] (Well no.=1645), the remaining activity at 3.75 µM is 107%.

With `O[C@H]1[C@H](O)[C@@H](O)[C@H](O)[C@@H](O)[C@@H]1O` [scyllo -Inositol], the remaining activity at 1.25 µM in test [1] (Well no.=5379) came out at 104%. In test [2] (Well no.=5379), the remaining activity at 3.75 µM stood at 102%.

Take `NS(=O)(=O)NCCNc1nonc1/C(=N/O)Nc1ccc(F)c(Br)c1` [Epacadostat]: the remaining activity at 1.25 µM in test [1] (Well no.=8415) was determined as 99.9%. Besides, the remaining activity at 3.75 µM in test [2] (Well no.=8415) is 95.7%.

Turning to `CN1[C@@H]2CC[C@H]1C[C@@H](OC(=O)c1c[nH]c3ccccc13)C2` [Tropisetron (Hydrochloride)], the remaining activity at 1.25 µM in test [1] (Well no.=7467) was 100%. Moreover, the remaining activity at 3.75 µM in test [2] (Well no.=7467) was 102%.

`COc1ccc(S(=O)(=O)Nc2nc(-c3cccc([N+](=O)[O-])c3)cs2)cc1OC` [Ro 61-8048]: the remaining activity at 1.25 µM in test [1] (Well no.=5865) amounted to 109%. Further, the remaining activity at 3.75 µM in test [2] (Well no.=5865) amounted to 106%.

Take `COc1cc2nc(N3CCN(C(=O)C4CCCO4)CC3)nc(N)c2cc1OC` (stereo not shown) [Terazosin hydrochloride]: in test [1] (Well no.=1241), the remaining activity at 1.25 µM was found to be 98.7%. Further, the remaining activity at 3.75 µM in test [2] (Well no.=1241) worked out at 92.5%.

As to `OCCOc1ccc(/C(=C(/CCCl)c2ccccc2)c2ccccc2)cc1` [2-{4-[(1Z)-4-chloro-1,2-diphenyl-1-butenyl]phenoxy}ethanol], the remaining activity at 1.25 µM in test [1] (Well no.=5956) was 92.3%. Besides, the remaining activity at 3.75 µM in test [2] (Well no.=5956) was determined as 93.6%.

`COC(=O)[C@@H]1[C@H]2C[C@H]3c4[nH]c5ccccc5c4CCN3C[C@@H]2CC[C@@H]1O` [Yohimbine (Hydrochloride)]: in test [1] (Well no.=8337), the remaining activity at 1.25 µM is 103%. The remaining activity at 3.75 µM in test [2] (Well no.=8337) came out at 97.4%.

With `COCCCOc1cc(C[C@@H](C[C@H](N)[C@@H](O)C[C@H](C(=O)NCC(C)(C)C(N)=O)C(C)C)C(C)C)ccc1OC` [Aliskiren hemifumarate], the remaining activity at 1.25 µM in test [1] (Well no.=5148) is 107%. In test [2] (Well no.=5148), the remaining activity at 3.75 µM stood at 104%.

In the case of `NC1(C(=O)O)CCCCC1` [1-Amino-1-cyclohexanecarboxylic acid hydrochloride], in test [1] (Well no.=160), the remaining activity at 1.25 µM stood at 100%. Also, the remaining activity at 3.75 µM in test [2] (Well no.=160) turned out to be 102%.

In the case of `CNC(=O)[C@H]1O[C@@H](n2cnc3c(NCc4cccc(I)c4)nc(Cl)nc32)[C@H](O)[C@@H]1O` [Chloro-IB-MECA], the remaining activity at 1.25 µM in test [1] (Well no.=395) stood at 95.2%. For the same compound, in test [2] (Well no.=395), the remaining activity at 3.75 µM turned out to be 95.2%.

With `CN1CCC(OC(c2ccccc2)c2ccccc2)CC1` [Diphenylpyraline (hydrochloride)], the remaining activity at 1.25 µM in test [1] (Well no.=6853) stood at 100%. For the same compound, in test [2] (Well no.=6853), the remaining activity at 3.75 µM was 102%.

With `COc1ccc(C(=O)Nc2sc3c(c2C(N)=O)CCCC3)cc1OC` [TCS 359 - 2-[(3,4-Dimethoxybenzoyl)amino]-4,5,6,7-benzo[b]thiophene-3-carboxamide], in test [1] (Well no.=2580), the remaining activity at 1.25 µM was determined as 93.7%. For the same compound, the remaining activity at 3.75 µM in test [2] (Well no.=2580) was determined as 90%.

As to `CC1(C)C(=O)N(CCN2CCC(C(=O)c3ccc(F)cc3)CC2)c2ccccc21` [LY310762], the remaining activity at 1.25 µM in test [1] (Well no.=7237) came out at 102%. The remaining activity at 3.75 µM in test [2] (Well no.=7237) stood at 100%.
